Measured values taken from US20210174908A1, “CLASSIFICATION OF TUMOR MICROENVIRONMENTS” (Oncxerna Therapeutics, Inc., priority 2019, published 2021).

Assays:
MDSC = conditions: pre-clinical models; cited from earlier work
gastric cancer = experiment: ANN classifier applied to pembrolizumab monotherapy gastric cancer data, threshold / probability score optimization; type: in vivo, human
Source text: Sensitivity refers to the number of true biomarker responders divided by number of actual responders; specificity refers to the number of true biomarker non-responders divided by number of actual non-responders; PPV refers to the number of true biomarker responders divided by number of total predicted biomarker responders (how well the biomarker-positive rating performs); and NPV—refers to the number of true biomarker non-responders divided by number of total predicted biomarker non-responders (how well the biomarker-negative rating performs).

[1] = tested on: patients with gastric cancer; experiment: Retrospective population-based TME classification of gastric cancer patients who received pembrolizumab (n = 45), RECIST response; type: in vivo, human; conditions: for Class response rate: population-based classifier
Source text: The analysis included 45 gastric cancer tumor samples.
The ORR for all patients was 27% (12/45). […] When the patients were retrospectively analyzed and placed in the Class IA, the response rate was 80%; and in Class IS, the response rate was 18%.

solid tumors = experiment: Navicixizumab Phase 1A dose-escalation trial, retrospective Z-score and ANN biomarker analysis (n = 39); type: in vivo, human; conditions: for Patients with benefit (SD or better): gynecological cancers
Experimental: A retrospective data analysis of a Phase 1A dose-escalation trial for patients with solid tumors. […] Patients with the above cancers had biopsies collected. Exploratory predictive biomarkers such as DLL4 and VEGF were measured in FFPE tumor specimens, either archived or fresh core needle biopsied at study entry (2 FFPE cores were preferred whenever possible) by immunohistochemistry. […] In the biomarker-positive subset, 48% achieved SD or better.
Model performance is tabulated in TABLE 40; and abbreviations and definitions are as follows; ACC is accuracy; AUC ROC is area under the receiving operator characteristic curve; Sensitivity is the number of true biomarker responders divided by number of actual responders; Specificity is the number of true biomarker non-responders divided by number of actual non-responders; PPV is positive predictive value, i.e., number of true biomarker responders divided by number of total predicted biomarker responders; NPV is negative predictive value, i.e., number of true biomarker non-responders divided by number of total predicted biomarker non-responders.

[2] = tested on: HER2 negative metastatic breast cancer, NSCLC, hepatocellular carcinoma; conditions: with paclitaxel (HER2 negative metastatic breast cancer), paclitaxel-carboplatin (advanced NSCLC), sorafenib (hepatocellular carcinoma), docetaxel (non-squamous NSCLC); cited from earlier work

Question: Which “Effect on MDSC functions” value (MDSC) does the source give for `CCCc1nn(C)c2c(=O)[nH]c(-c3cc(S(=O)(=O)N4CCN(C)CC4)ccc3OCC)nc12` [sildenafil] here?
Answer: Its value is “significantly inhibited the MDSC functions”.

Question: With Pembrolizumab as the molecule, how does the “Biomarker positive Overall Response Rate (ORR)” value (gastric cancer; Option 1: optimized threshold, both IS and IA groups (10/14)) read?
Answer: Its value is 70%.

Question: What about the “Biomarker-positive ORR” value (gastric cancer; Option 2: optimized threshold, only the IA subgroup (8/8)) of the same molecule?
Answer: Its value is 100%.

Question: What about the “Biomarker positive Overall Response Rate (ORR)” value (gastric cancer; before threshold optimization) of the same molecule?
Answer: Its value is 80%.

Question: What about the “ORR (CR + PR) or class response rate” value ([1]; All (ORR), n = 45) of the same molecule?
Answer: Its value is 12/45 (27%).

Question: And the CR ([1]; All, n = 45, patients/total)?
Answer: The CR was 3/45.

Question: And the PD ([1]; All, n = 45, patients/total)?
Answer: Its PD is 18/45.

Question: And the PR ([1]; All, n = 45, patients/total)?
Answer: Its PR is 9/45.

Question: What about the Class response rate ([1]; Class A) of the same molecule?
Answer: Its Class response rate is 0%.

Question: And the Class response rate ([1]; Class IA, CR+PR in class / patients in class)?
Answer: Its Class response rate is 80%.

Question: What about the Class response rate ([1]; Class ID) of the same molecule?
Answer: Its Class response rate is 12%.

Question: What about the Class response rate ([1]; Class IS) of the same molecule?
Answer: Its Class response rate is 18%.

Question: And the “Overall Response Rate (ORR)” value ([1]; all patients, n = 45, CR+PR divided by total number of patients (RECIST))?
Answer: Its value is 27%.

Question: What about the “ORR (CR + PR) or class response rate” value ([1]; class A) of the same molecule?
Answer: Its value is 0/8 (0%).

Question: And the CR ([1]; class A, patients/class)?
Answer: Its CR is 0/8.

Question: And the PD ([1]; class A, patients/class)?
Answer: The PD was 3/8.

Question: What about the PR ([1]; class A, patients/class) of the same molecule?
Answer: The PR was 0/8.

Question: And the “ORR (CR + PR) or class response rate” value ([1]; class IA)?
Answer: The value was 8/10 (80%).

Question: What about the CR ([1]; class IA, patients/class) of the same molecule?
Answer: The CR was 2/10.

Question: What about the PD ([1]; class IA, patients/class) of the same molecule?
Answer: The PD was 2/10.

Question: And the PR ([1]; class IA, patients/class)?
Answer: The PR was 6/10.

Question: And the “ORR (CR + PR) or class response rate” value ([1]; class ID)?
Answer: The value was 2/16 (12%).

Question: What about the CR ([1]; class ID, patients/class) of the same molecule?
Answer: Its CR is 0/16.

Question: What about the PD ([1]; class ID, patients/class) of the same molecule?
Answer: The PD was 7/16.

Question: And the PR ([1]; class ID, patients/class)?
Answer: Its PR is 2/16.

Question: And the “ORR (CR + PR) or class response rate” value ([1]; class IS)?
Answer: The value was 2/11 (18%).

Question: And the CR ([1]; class IS, patients/class)?
Answer: The CR was 1/11.

Question: What about the PD ([1]; class IS, patients/class) of the same molecule?
Answer: The PD was 6/11.

Question: And the PR ([1]; class IS, patients/class)?
Answer: The PR was 1/11.

B1: Navicixizumab (antibody, chains of the INN, looked up, V domains shown)
VH: QVQLVQSGAEVKKPGASVKISCKASGYSFTAYYIHWVKQAPGQGLEWIGYISNYNRATNYNQKFKGRVTFTTDTSTSTAYMELRSLRSDDTAVYYCARDYDYDVGMDYWGQGTLVTVSS
VL: DIVMTQSPDSLAVSLGERATISCRASESVDNYGISFMKWFQQKPGQPPKLLIYAASNQGSGVPDRFSGSGSGTDFTLTISSLQAEDVAVYYCQQSKEVPWTFGGGTKVEIK
VH2: QVQLVQSGAEVKKPGASVKVSCKASGYTFTNYWMHWVRQAPGQGLEWMGDINPSNGRTSYKEKFKRRVTLSVDKSSSTAYMELSSLRSEDTAVYFCTIHYDDKYYPLMDYWGQGTLVTVSS
VL2: B1 VL
notes: anti-VEGF/anti-DLL4 bispecific antibody
Question: Which results are given for B1?
Answer: Patients achieving SD (Stable Disease) or better (RECIST 1.1) (solid tumors; all-comers biomarker subset, n = 39): 38%; Patients achieving SD or better (solid tumors; biomarker-positive subset): 48%; Patients with benefit (SD or better) (solid tumors; biomarker-negative (n=6)): 0%; Patients with benefit (SD or better) (solid tumors; biomarker-positive (n=12)): 58%

B2: Bavituximab (antibody, V domains shown)
VH: EVQLQQSGPELEKPGASVKLSCKASGYSFTGYNMNWVKQSHGKSLEWIGHIDPYYGDTSYNQKFRGKATLTVDKSSSTAYMQLKSLTSEDSAVYYCVKGGYYGHWYFDVWGAGTTVTVSS
VL: DIQMTQSPSSLSASLGERVSLTCRASQDIGSSLNWLQQGPDGTIKRLIYATSSLDSGVPKRFSGSRSGSDYSLTISSLESEDFVDYYCLQYVSSPPTFGAGTKLELK
notes: PS-targeting antibody
Question: With B2 as the molecule, how does the “Anti-tumor effects in clinical trials” value [2] read?
Answer: The value was “Promising anti-tumor effects”.
